# Assay results: US20090136561A1, “Non-peptidyl agents with pHSP20-like activity, and uses thereof” (Prolexys Pharmaceuticals, Inc., priority 2004, published 2009)
# “And” between values parts separate entries of the source, which are not always exact repeats. Identical values can stand only once. “Also recorded” adds a separate entry of the source. Non-standard residues stand in square brackets, D forms with d. Residues, ends and D or L forms follow the SMILES beside them. pS = N[C@@H](COP(=O)(O)O)C(=O)O
# Experiments:
# [1] = target: T1, interaction between 14-3-3γ and pHSP20 (Homo sapiens, UniProt P61981); test: Fluorescence polarization assay of 14-3-3γ / fluorescein-labeled pHSP20 peptide (WLRRApSAP) interaction; type: binding; conditions: for inhibition of interaction between 14-3-3γ and pHSP20: dose response, FIG. 9; for IC50: multiple concentrations, FIG. 10
# T1 sequence (P61981 1-247): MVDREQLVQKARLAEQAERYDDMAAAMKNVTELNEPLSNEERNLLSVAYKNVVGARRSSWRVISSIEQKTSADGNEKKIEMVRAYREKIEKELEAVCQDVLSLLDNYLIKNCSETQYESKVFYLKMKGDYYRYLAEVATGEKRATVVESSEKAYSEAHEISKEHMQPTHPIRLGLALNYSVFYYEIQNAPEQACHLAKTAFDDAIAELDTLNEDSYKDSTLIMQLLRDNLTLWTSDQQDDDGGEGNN
# Experimental: The ability of compounds (a)-(k) to inhibit the interaction between 14-3-3γ and pHSP20 was determined by a fluorescence polarization (FP) assay. […] The initial screen for inhibitors examined approximately 50,000 compounds in the DiverSet library (ChemBridge, San Diego). Initial compound screening was carried out by first mixing peptide and individual compounds followed by addition of protein to a final volume of 15 ul. The final concentrations of each component were: 57.4 nM peptide, 10 uM compound, 5% DMSO, 1.5 uM 14-3-3 gamma, 0.01 M HEPES pH 7.4, 0.15 M NaCl, 3 mM EDTA, 0.005% Tween 20, 10 mM MnCl2, 9.33 mM Tris (7.5), and 0.0093% NaN3.
# The ability of compounds (l) and (m) to inhibit the interaction between 14-3-3γ and pHSP20 was determined by a fluorescence polarization (FP) assay as described in Example 4, except that the compound was measured at multiple concentrations.
# [2] = system: Primary human airway smooth muscle cells; test: Spontaneous bead motion (MSD) of RGD-coated microbeads on airway smooth muscle cells; type: cell-based; conditions: for effect on bead motion: formulated with 4% cyclodextrin, 10-15 minutes incubation
# Experimental: Primary human airway smooth muscle cells were isolated from healthy individuals and cultured to passage 3-6. The cells were grown to confluence, and then serum deprived for 24 hours. The serum-deprived cells were plated on plastic wells coated with collagen.
# After the cells were plated, RGD-coated microbeads were added. […] Consequently, the movement of the cells can be determined by monitoring the motion of the microbeads. In this assay, the rate of spontaneous bead motions (i.e., cell motion) depends upon the rate of reorganization of the actin cytoskeleton.
# The position of each bead was recorded using video microscopy. The two-dimensional trajectory of bead motion are expressed as a mean square displacement (MSD) as a function of time: […]
# where ri(t) is the distance of the ith bead at time t relative to its position at time 0.
# The spontaneous bead motion in each sample of cells was first measured for 5 minutes. […] Spontaneous bead motions were then measured for another 5 minutes.
# [3] = system: Primary human airway smooth muscle cells; test: Magnetic twisting cytometry, cell stiffness (storage modulus G'); type: cell-based; conditions: for change of cell stiffness (storage modulus): controls, measured over 10 minutes
# Experimental: Primary human airway smooth muscle cells were isolated from healthy individuals and cultured to passage 3-6. The cells were grown to confluence, and then serum deprived for 24 hours. The serum-deprived cells were plated on plastic wells coated with collagen. After the cells were plated, RGD-coated microbeads were added. As described by Wang et al. Science 260:1124-1127, 1993, the microbeads become tightly anchored to the cell cytoskeleton. Consequently, the movement of the cells can be determined by monitoring the motion of the microbeads.
# Once the cells were attached to the microbeads, the beads were magnetized using a magnetizing coil and twisted using a twisting coil, which generates an oscillating magnetic field at 0.7 Hz. The bead displacement is measured using video microscopy at 83 ms intervals. The amplitude of bead displacement is dependent on several factors, but generally the displacement is directly proportional to cell stiffness. The cell stiffness is expressed as a change of storage modulus (G′) over time (Maksym et al., J. Appl. Physiol. 89: 1619-1632, 2000).
# The cell stiffness for control experiments and experiments using peptides was measured over 10 minutes. The peptides were added 1 minute after the start of the experiment. The cell stiffness for non-peptidyl compounds of the invention was measured for 1 minute, stopped, compound added and stiffness was measured for another 10 minutes.
# [4] = system: Bovine coronary artery rings; test: Contraction/dilation of serotonin-treated bovine coronary artery rings; type: cell-based; conditions: for effect on the rings: cyclodextrin formulation, serotonin treated, 30 minutes after treatment
# Experimental: Bovine coronary artery rings were treated with compositions containing only cyclodextrin or formulations of cyclodextrin in combination with a pHSP20 peptide, compound (m) or compound (n). The contraction of the rings was measured over time after treatment with serotonin and one of the formulations above. Each of the formulations was tested at several concentrations, with the exception of the pHSP20 peptide.
# 14-3-3 proteins = test: Pull-down with bead-immobilized peptides from HEK293 whole cell lysate, SDS-PAGE and MS analysis; type: binding, human; conditions: peptide immobilized on Affigel 10 beads
# Experimental: To determine if the pHSP20 peptide binds to 14-3-3, pull-down experiments were conducted with pHSP20 and its analogues, aHSP20 and scrHSP20, linked to NHS activated Affigel 10 beads. As an additional control, activated beads were also reacted with ethanolamine. Each of the bead-bound peptide samples and the ethanolamine control were then separately incubated for 1.5 h at 4° C. with a whole cell lysate derived from HEK293 cells. After thoroughly washing the beads, each of the four sets of beads was eluted with a 100 μM solution of the free peptide corresponding to the one immobilized on the beads; the ethanolamine control beads were eluted with pHSP20. Approximately 15% of the eluate volume was run on an SDS-PAGE gel, while the remainder of the eluate was precipitated with ethanol and then analyzed by a 2D-LC shotgun MS method (Washburn et al., 2001, Nat. Biotechnol. 19:242).
# The N-terminal amino group of the peptides was utilized for the immobilization to N-hydroxysuccinimide activated Affi-Gel 10 beads (Biorad, Hercules, Calif.). For the immobilization, 60 μg of each peptide, dissolved in dimethylformamide (DMF), was incubated for 4 h with 100 μl beads and 0.14 μmol triethylamine (Sigma, St. Louis, Mo.). The final volume during the immobilization was 400 μl. […] The release of the ivDde group was monitored by measuring the absorption at 290 nm. […]
# [5] = system: 14-3-3 isoforms (YWHAG, YWHAH, YWHAE, YWAHB, YWHAZ); test: Biacore binding of tagged 14-3-3 isoforms to immobilized pHSP20 peptide; conditions: E23- and E25-tagged 14-3-3 proteins
# Experimental: To further determine binding specificity of the pHSP20 peptide for each 14-3-3 isoform, similar binding experiments were carried out with each 14-3-3 isoform. Various 14-3-3 isoforms were either tagged with GST-His (referred to as “E23”) or tagged with Biotin-His (referred to as “E25”). The E23-14-3-3 proteins (tagged with GST-His) bound much better than the E25-14-3-3 proteins (tagged with Biotin-His). Similar effects were detected by using a version of YWHAG (also referred to as 14-3-3γ) in which the GST tag was proteolytically removed. […] It is believed that the GST either has a chaperone or stabilizing effect on YWHAG or it promotes the formation of dimers of YWHAG which could have different binding properties to pHSP20. Further experiments are planned to elucidate this discrepancy.
# 14-3-3 gamma isoform = target: T2, 14-3-3 gamma isoform (Homo sapiens, UniProt P61981); test: Biacore competition: 14-3-3 gamma flowed over immobilized pHSP20 peptide in presence of competing peptides; type: binding; conditions: free peptide as competitor
# T2 construct: GST-His (E23) or Biotin-His (E25)
# T2 sequence (P61981 1-247): T1 sequence (P61981 1-247)
# Experimental: To determine the relative binding affinity between various truncated versions of the pHSP20 (phosphorylated HSP20) peptide and the 14-3-3 gamma isoform, Applicants employed Biacore binding assays and the experiments were set up as follows. The pHSP20 peptide used in the original experiments (e.g., WLRRAp[…]) was immobilized to a Biacore chip and competition experiments were performed by flowing a 14-3-3 gamma isoform protein over the chip in the presence of different pHSP20 truncation variants. The pHSP20 truncation variants included: a) pHSP20 (positive control); b) HSP20 (unphosphorylated pHSP20, negative control); c) RRApSAP (minimal 14-3-3 consensus binding sequence); d) WLRRApSAP; e) RRApSAPLP; f) RRAp[…]; g) WLRRApSAPLP.
# Competition experiments were done whereby the only variable between experiments is the identity of the competing peptide.
molecule,measurement,setting,value
CC(C)(C)c1nc(Nc2ccccc2)s[n+]1C=C(Cl)Cl [(a)],inhibition of interaction between 14-3-3γ and pHSP20,[1],able to largely inhibit interaction
COc1ccccc1Nc1nc(-c2ccccc2)[n+](-c2ccccc2)s1 [(j)],inhibition of interaction between 14-3-3γ and pHSP20,[1],able to largely inhibit interaction
O=C(N/N=C/c1cc(O)ccc1Br)c1ccncc1 [(o)],effect on bead motion,[2],not conclusive
c1ccc(CNc2nc(-c3ccccc3)[n+](-c3ccccc3)s2)cc1 [compound (f)],change of cell stiffness compared to the cyclodextrin control,"[3]; solubilized with cyclodextrin, 10 minutes after addition",particular striking
same,inhibition of interaction between 14-3-3γ and pHSP20,[1],able to largely inhibit interaction
same,effect on bead motion,[2],clearly increases bead motion
O=[N+]([O-])C1=Cc2cc(Br)cc(Br)c2OC1c1c(Cl)cccc1Cl (stereo not drawn) [compound (l)],IC50,[1],~32 µM
O=C(N/N=C/c1ccc(O)c(O)c1O)c1ccncc1 [compound (m)],IC50,[1],~13.5 µM
same,effect on bead motion,[2],not conclusive
same,duration of vasodilatory effect compared with pHSP20 peptide,[4],longer than that of the pHSP20 peptide
same,vasodilatory effect at 40 minutes after treatment,[4],no significant decrease in the vasodilatory effect
same,effect on the rings,[4],vasodilatory effect
COc1ccc(/C=N/NC(=O)c2cncc(Br)c2)c(OC)c1OC [compound (n)],effect on bead motion,[2],not conclusive
same,duration of vasodilatory effect compared with pHSP20 peptide,[4],longer than that of the pHSP20 peptide
same,vasodilatory effect at 40 minutes after treatment,[4],no significant decrease in the vasodilatory effect
same,effect on the rings,[4],vasodilatory effect
NCCc1c[nH]cn1 [histamine],change of cell stiffness (storage modulus),[3],increased the cell stiffness
CC(C)NCC(O)c1ccc(O)c(O)c1 (stereo not drawn) [isoproterenol],change of cell stiffness (storage modulus),[3],decreased the stiffness
CC(C)C[C@H](NC(=O)CNC(=O)[C@@H]1CCCN1C(=O)[C@H](CC(C)C)NC(=O)[C@@H]1CCCN1C(=O)[C@H](C)NC(=O)[C@H](COP(=O)(O)O)NC(=O)[C@H](C)NC(=O)[C@H](CCCNC(=N)N)NC(=O)[C@H](CCCNC(=N)N)NC(=O)[C@H](CC(C)C)NC(=O)[C@@H](N)Cc1c[nH]c2ccccc12)C(=O)N[C@@H](CO)C(=O)N[C@@H](CCCCN)C(=O)O [pHSP20 peptide] (H-WLRRA[pS]APLPGLSK-OH; N-terminus and C-terminus assumed),binding of 14-3-3 proteins in pull-down,14-3-3 proteins,binds to 14-3-3 proteins
same,isoform specificity for the pHSP20 peptide,[5],YWHAG>YWHAH>YWHAE=YWAHB=YWHAZ and 14-3-3γ (YWHAG) and 14-3-3η (YWHAH) bind stronger than the other 14-3-3 isoforms
same,competition with immobilized pHSP20 peptide for binding to 14-3-3γ,14-3-3 gamma isoform,binding of 14-3-3 to the pHSP20 ligand is decreased
"O=[As]O [sodium arsenite, reference compound]",effect on bead movement,"[2]; 200 μM, negative control",decrease in bead movement
RRApSAP,competition with immobilized pHSP20 peptide for binding to 14-3-3γ,14-3-3 gamma isoform,competed better than the original pHSP20 sequence; also recorded: higher binding affinity to 14-3-3 gamma than the original pHSP20 peptide; also recorded: strong competition
WLRRApSAP,competition with immobilized pHSP20 peptide for binding to 14-3-3γ,14-3-3 gamma isoform,higher binding affinity to 14-3-3 gamma than the original pHSP20 peptide; also recorded: strong competition
